Data reported in US20240217988A1, “ESTROGEN RECEPTOR ANTAGONIST” (Shenzhen Forward Pharmaceuticals Co., Limited, priority 2021, published 2024).

Key:
GST-ERα-LBD = GST-ERα-LBD (Homo sapiens (Human), UniProt P03372); assay: ERα TR-FRET test; format: biochemical; details: estradiol final concentration 1.5 nM, biotin-SRC2
Procedure: 1× Tris-HCl (Sigma, PHG0002) protein buffer was prepared and mixed for later use. The compound to be detected was prepared into a stock solution with a concentration of 2 mM and then subjected to serial 3-fold gradient dilution, resulting in a total of 10 concentrations.
Preparation of 1× protein mixed solution: firstly, 2× GST-ERα-LBD (Invitrogen, A15677)/MAb anti-GST-Eu (Cisbio, 61GSTKLA) mixed solution was prepared according to the following table.
2× biotin-SRC2/streptavidin-XL665 (Cisbio, 610SAXLA) mixed solution was prepared.
The above 2× GST-NR-LBD/ MAb anti-GST-Eu solution and 2× biotin-SRC2/streptavidin-XL665 solution were uniformly mixed at a volume ratio of 1:1; and the 1× protein mixed solution was added to each well of a 384-well plate, with 20 μL being added per well, the 384-well plate was put into a centrifuge and centrifuged at room temperature at 1000 rpm for 10 seconds, and it was taken out, then left to stand at room temperature for 3 h, and then read by EnVision multifunctional microplate reader.
The inhibition rate was calculated according to the following formula: […]
The data were imported into Graphpad Prism, and Log(agonist) vs. response-variable slope was used for curve fitting.
Y=Bottom+(Top−Bottom)/(1+10^((LogEC50−X)*HillSlope)) Fitting formula

[1] = test system: Human breast cancer cells MCF-7; assay: MCF-7 cell proliferation experiment; format: cell-based; details: Homo sapiens, MCF7; MCF-7 cells, 72 hours, Cell Titer-Glo
Procedure: Test Example 2: MCF-7 Cell Proliferation Experiment
Human breast cancer cells MCF-7 (HTB-22, purchased from ATCC) were inoculated into a 96-well plate. The culture medium was an MEM (Hyclone, SH30024.01B) culture medium containing 10% of FBS (Gibco, 10099-141), 1% of pyruvic acid (Sigma, S8636), and 1% of nonessential amino acid (Sigma, M7145), and the inoculation density was 4,000 cells/well. The cells were cultured at 37° C., 5% CO2. The compound was prepared into a 20 mM stock solution, which was subjected to gradient dilution to a final concentration of […] with 100% DMSO (Sigma, D2650) and then diluted 20 folds with a culture medium containing 2% of FBS. After 24 hours of culture, the culture medium was removed, 90 μL of a culture medium containing 2% of FBS and 10 μL of drug were added to each well, while 10 μL of DMSO was added to the control group, and they were gently shaken and mixed. The blank group only contained 100 μL of 2% FBS culture medium. They were placed in an incubator and cultured at 37° C., 5% CO2. After 72 hours, 50 μL of mixed Cell Titer-Glo (Promega, G7571) was added. They were shaken and mixed uniformly, and placed at room temperature for 10 min. The chemiluminescence signal value was determined. The negative control was 0.5% DMSO well.

ERα = ERα (Homo sapiens (Human), UniProt P03372); assay: Degradation effect of compound on ERα (ERα DuoSet IC ELISA in MCF-7 cells); format: cell-based; details: 24 h with compound, read-out: IC50 value of ERα degradation by compound
Procedure: In this test example, ERα DuoSet IC ELISA Kit (R&D, DYC5715) was used to detect the degradation effect of the compound on ERα. On the first day of the experiment, human breast cancer cells MCF-7 (the source was as above) were inoculated into a 24-well plate. The culture medium was an MEM culture medium containing 10% of activated-carbon-treated FBS (Tocyto, UT61204), 1% of pyruvic acid and 1% of nonessential amino acid. The inoculation density was 150,000 cells/well. The cells were cultured at 37° C., 5% CO2 for 24 h.
On the second day of the experiment, the compound to be tested was diluted in gradient and added to a 24-well plate containing cells. The cells were cultured for 24 h at 37° C., 5% CO2. ERα capture antibody was diluted to 1 μg/ml with PBS (Corning, 21-040-CVR) and added to a 96-well plate at 100 μL/well, and the plate was […] coated overnight at room temperature.
On the third day of the experiment, the coated 96-well plate was washed three times with PBS, 300 μL of a blocking solution (R&D, DY995) was added to each well, and the plate was blocked at room temperature for 1 h. The 24-well plate was washed once with PBS, and the residual liquid was sucked off. […] The diluted cell lysate was taken and added to the blocked 96-well plate, with 100 μL per well, and incubated at room temperature for 2 h. The plate was washed three times with a washing solution (R&D, WA126), and a primary antibody was then added. After incubation for 1 h, the 96-well plate was washed four times, a secondary antibody was added, and incubation was carried out at room temperature in the dark for 30 min. The plate was washed four times with the washing solution, and TMB (R&D, DY999) was added. After 15 minutes of development, the reaction was terminated with a stop solution (R&D, DY994), and the light absorption at 450 nm was read.

[2] = Stability in human liver microsomes in vitro; format: in vitro ADME; details: human liver microsomes; for half-life: microsome protein 1 mg/mL working solution, NADPH; for CLint scaled: scaled to liver; for microsomal CLint: read-out: CLint(mic)
Procedure: Test Example 4: Test for Stability in Human Liver Microsomes In Vitro Eight 96-well incubation plates were prepared and named [NT], Blank60 and NCF60, respectively. […] No test compound or control compound was added to Blank60 plate, and samples were taken after incubation for 60 min. NCF60 plate was incubated with a potassium phosphate buffer instead of an NADPH regeneration system solution (Sigma, N0505) for 60 min. […] Only the microsome working solution was added to Blank60 plate, and the incubation plates Blank60, T5, T15, T30, T45 and T60 except T0 and NCF60 were then placed in a water bath at 37° C. and pre-incubated for about 10 min. To the samples of T0 plate, 600 μL of a stop solution (acetonitrile:methanol (95:5, v/v) solution containing 100 ng/mL of tolbutamide (Sigma, T0891)) was added first, and the NADPH regeneration system working solution was then added. 98 μL of a potassium phosphate buffer was added to each well of NCF60 plate and incubated for 60 min. After the pre-incubation in the incubation plates Blank60, T5, T15, T30, T45 and T60 was completed, 98 μL of the NADPH regeneration system working solution was added to each sample well to initiate the reaction. After an appropriate incubation time (such as 5, 15, 30, 45 and 60 min), 600 μL of a stop solution was added to each sample well and the control sample well in Blank60, […] the reaction. All the sample plates were shaken uniformly and centrifuged at 3220×g for 20 min. 200 μL of test sample supernatant was separately taken and diluted in 200 μL of an aqueous solution containing 0.3% formic acid for LC-MS/MS analysis, and 100 μL of control sample supernatant was taken and diluted in 300 μL of pure water for LC-MS/MS analysis. Calculation was performed according to the following formula: [formula] [formula] [formula] [formula] [formula] [formula]

Sequence of GST-ERα-LBD (P03372 311-547): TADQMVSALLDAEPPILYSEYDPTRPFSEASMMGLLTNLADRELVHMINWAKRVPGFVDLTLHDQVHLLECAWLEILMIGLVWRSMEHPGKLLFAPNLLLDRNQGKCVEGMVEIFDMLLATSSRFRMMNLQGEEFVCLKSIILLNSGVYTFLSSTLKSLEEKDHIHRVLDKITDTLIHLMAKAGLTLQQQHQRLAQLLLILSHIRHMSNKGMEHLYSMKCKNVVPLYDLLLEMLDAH
Sequence of ERα (P03372 whole entry): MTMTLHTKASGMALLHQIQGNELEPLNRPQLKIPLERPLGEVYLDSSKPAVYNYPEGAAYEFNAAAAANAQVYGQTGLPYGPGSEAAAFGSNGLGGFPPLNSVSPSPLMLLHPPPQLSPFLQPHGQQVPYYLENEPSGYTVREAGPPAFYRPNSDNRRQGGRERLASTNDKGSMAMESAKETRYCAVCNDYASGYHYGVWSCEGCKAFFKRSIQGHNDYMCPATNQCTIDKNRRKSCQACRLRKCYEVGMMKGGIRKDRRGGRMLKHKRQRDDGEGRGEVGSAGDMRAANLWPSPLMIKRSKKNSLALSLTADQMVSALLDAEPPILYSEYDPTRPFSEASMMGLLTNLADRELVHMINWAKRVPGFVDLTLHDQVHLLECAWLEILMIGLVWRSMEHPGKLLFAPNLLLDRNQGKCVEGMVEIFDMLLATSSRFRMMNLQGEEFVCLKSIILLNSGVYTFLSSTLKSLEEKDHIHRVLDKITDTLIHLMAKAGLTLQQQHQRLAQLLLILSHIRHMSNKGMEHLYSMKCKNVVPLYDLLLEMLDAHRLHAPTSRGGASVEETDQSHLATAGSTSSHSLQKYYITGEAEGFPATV

SMILES | IC50 (GST-ERα-LBD) | IC50 [1] | DC50 (ERα) | half-life [2] | CLint scaled [2] | microsomal CLint [2]
COc1cc(NC2CN(CCCF)C2)ccc1[C@@H]1c2ccc3[nH]c(=O)oc3c2C[C@@H](C)N1CC(F)(F)F [Example 25, (6S,8R)-6-(4-((1-(3-fluoropropyl)azetidin-3-yl)amino)-2-methoxyphenyl)-8-methyl-7-(2,2,2-trifluoroethyl)-6,7,8,9-6,7,8,9-tetrahydrooxazolo[5,4-f]isoquinolin-2(3H)-one] | 11.4 nM | 0.24 nM | 0.34 nM | 1.76 h | 8.4 mL/min/kg | 9.6 µL/min/mg
C[C@@H]1Cc2c(ccc3[nH]c(=O)oc23)[C@@H](c2ccc(NC3CN(CCCF)C3)cn2)N1CC(F)(F)F [Example 26, (6S,8R)-6-(5-((1-(3-fluoropropane)azetidin-3-yl)amino)pyridin-2-yl)-8-methyl-7-(2,2,2-trifluoroethyl)-6,7,8,9-tetrahydroxazolo[5,4-f]isoquinolin-2(3H)-one] | 58.4 nM | 0.55 nM |  |  |  | 
COc1cc(NC2CN(CCCF)C2)cc(F)c1[C@@H]1c2ccc3[nH]c(=O)oc3c2C[C@@H](C)N1CC(F)(F)F [Example 34, (6S,8R)-6-(4-((1-(3-fluoropropyl)azetidin-3-yl)amino)-2-methoxy-6-fluoro-phenyl)-8-methyl-7-(2,2,2-trifluoroethyl)-6,7,8,9-6,7,8,9-tetrahydrooxazolo[5,4-f]isoquinolin-2(3H)-one] | 19.4 nM | 0.19 nM | 0.24 nM | 1.78 h | 8.9 mL/min/kg | 10.1 µL/min/mg
COc1cc(NC2CN(CCCF)C2)ccc1[C@@H]1c2ccc3[nH]c(=O)oc3c2C[C@@H](C)N1CC1(F)CC1 [Example 31] | 45.6 nM | 0.85 nM | 0.75 nM | 1.39 h | 18.4 mL/min/kg | 17.5 µL/min/mg
C[C@@H]1Cc2c(ccc3[nH]c(=O)oc23)[C@@H](c2c(F)cc(NC3CN(CCCF)C3)cc2F)N1CC(F)(F)F [Example 10, (6S,8R)-6-(2,6-difluoro-4-((1-(3-fluoropropyl)azetidin-3-yl)amino)phenyl)-8-methyl-7-(2,2,2-trifluoroethyl)-6,7,8,9-tetrahydrooxazolo[5,4-f]isoquinolin-2(3H)-one] | 7.8 nM | 0.2 nM | 0.41 nM | 1.94 h | 8.1 mL/min/kg | 9 µL/min/mg
COc1cc(NC2CN(CCCF)C2)cc(Cl)c1[C@@H]1c2ccc3[nH]c(=O)oc3c2C[C@@H](C)N1CC(F)(F)F [Example 33, (6S,8R)-6-(4-((1-(3-fluoropropyl)azetidin-3-yl)amino)-2-methoxy-6-chloro-phenyl)-8-methyl-7-(2,2,2-trifluoroethyl)-6,7,8,9-6,7,8,9-tetrahydrooxazolo[5,4-f]isoquinolin-2(3H)-one] | 11.8 nM | 0.39 nM | 0.35 nM | 1.85 h | 7.9 mL/min/kg | 8.3 µL/min/mg
CC(C)CN1[C@H](c2c(F)cc(OCCN3CC(CF)C3)cc2F)c2ccc3[nH]c(=O)oc3c2C[C@H]1C [Example 1] | 9 nM | 0.39 nM | 0.62 nM | 1.53 h | 13.6 mL/min/kg | 15.1 µL/min/mg
C[C@@H]1Cc2c(ccc3[nH]c(=O)oc23)[C@@H](c2c(F)cc(NC3CN(CCCF)C3)cc2F)N1CC(F)(F)CO [Example 9, (6S,8R)-7-(2,2-difluoro-3-hydroxypropyl)-6-(2,6-difluoro-4-((1-(3-fluoropropyl)azetidin-3-yl)amino)phenyl)-8-methyl-6,7,8,9-tetrahydrooxazolo[5,4-f]isoquinolin-2(3H)-one] | 21.6 nM | 0.19 nM | 0.39 nM |  |  | 
C[C@@H]1Cc2c(ccc3[nH]c(=O)oc23)[C@@H](c2c(F)cc(N3CC4(CN(CCF)C4)C3)cc2F)N1CC(F)(F)CO [Example 14, (6S,8R)-7-(2,2-difluoro-3-hydroxypropyl)-6-(2,6-difluoro-4-(6-(2-fluoroethyl)-2,6-diazspiro[3.3]hept-2-yl)phenyl)-8-methyl-6,7,8,9-tetrahydrooxazolo[5,4-f]isoquinolin-2(3H)-one] | 40.3 nM | 0.44 nM |  | 1.82 h | 8.7 mL/min/kg | 9.5 µL/min/mg
COc1cc(O[C@H]2CCN(CCCF)C2)ccc1[C@@H]1c2ccc3[nH]c(=O)oc3c2C[C@@H](C)N1CC(F)(F)F [Example 30, (6S,8R)-6-(4-(((S)-1-(3-fluoropropyl)pyrrolidin-3-yl)oxy)-2-methoxyphenyl)-8-methyl-7-(2,2,2-trifluoroethyl)-6,7,8,9-tetrahydroxazolo[5,4-f]isoquinolin-2(3H)-one] | 8.85 nM | 0.21 nM | 0.35 nM | 1.58 h | 14.4 mL/min/kg | 15.8 µL/min/mg
COc1cc(NC2CN(CCCF)C2)ccc1[C@@H]1c2ccc3[nH]c(=O)oc3c2C[C@@H](C)N1CC(C)(F)F [Example 32] | 14.7 nM | 0.39 nM | 0.42 nM | 1.71 h | 9 mL/min/kg | 9.8 µL/min/mg
